Data: patent US6355639B1, “Reverse prenyl compounds as immunosuppressants” (Sloan-Kettering Institute for Cancer Research, priority 1997, dated 2002)
Several values for one entry are separate records, joined by “and”; a condition that tells them apart may be missing. Equal entries are not always repeated. Where two headings read alike, the source gives them in different places. Marks after values point to notes of the source that are not given here.

Key:
[1] = tested on: peripheral blood lymphocytes stimulated by OKT3 antibody (anti-CD3); conditions: Classical immunosuppressant (historical data); read-out: IC50 OKT3 Assays; cited from earlier work
[2] = tested on: peripheral blood lymphocytes stimulated by PHA; conditions: Classical immunosuppressant (historical data); read-out: IC50 PHA Assays; cited from earlier work
[3] = tested on: Human Peripheral Blood Lymphocytes; experiment: Thymidine incorporation assay: activation of human peripheral blood lymphocytes by phytohemagglutinin; type: cell-based; conditions: drug 30 min, then 10 μg/ml PHA 24 hrs, [3H]Thd incorporation
Experimental: Inhibitory Effects of Ardeemin Compounds on the Activation of Human Peripheral Blood Lymphocytes by Phytohemagglutinin
Thymidine Incorporation Assay:
PBL were exposed to various concentrations of drugs for 30 min and then added 10 μg/ml PHA for 24 hrs. [^3H]Thd (1 μCi/well) was then added and incubated for 1 hr. The reaction is stopped by adding 10% TCA for analysis of [^3H]Tdk incorporation into DNA.

[4] = tested on: inflammation induced by carrageene; experiment: Inflammation induced by carrageene in mice pedis; type: in vivo
Experimental: FIG. 3 illustrates the delayed treatment of inflammation induced by carrageene with aspirin, N-acetylardeemin and hydrocortisone. (●) Control; (▪) Aspirin (500 mg/kg, p.o.); (Δ) N-acetylardeemin (100 mg/kg, i.p.); (x) Hydrocortisone cream.
FIG. 4 illustrates the treatment of inflammation induced by carrageene with aspirin, N-acetylardeemin and hydrocortisone. (●) Control; (▪) Aspirin (500 mg/kg, p.o.); (Δ) N-acetylardeemin (100 mg/kg, i.p.); (x) Hydrocortisone cream.

[5] = tested on: inflammation induced by carrageene; experiment: Inflammation induced by carrageene in mice pedis; type: in vivo; remark: listed apart in the source
B6D2F1 mice = experiment: Cumulative toxicity in B6D2F1 mice
Experimental: FIG. 2 illustrates the cumulative toxicity in B6D2F1 mice treated with multidrug resistance reversal agents (mg/kg,i.p.,QD). Each group consists of five mice. […] Cumulated doses in the series shown in panels A, B and C were 712.5, 1700 and 3950 mg/kg×day, respectively.

[6] = tested on: heterotopic cardiac transplants; experiment: Heterotopic mouse cardiac transplants (prospective example); type: in vivo, mice; conditions: 40 mg/kg-1 mg/25 g per day, i.v., 7 or 14 days, Alzet pump
Experimental: 5-N-Acetylardeemin and 5-N-acetyl-8-desmethylardeemin are individually administered to mice which have received heterotopic cardiac transplants at a range of concentrations (40 mg/kg-1 mg/25 g per day), i.v., for seven days or fourteen days using an Alzet pump. Each compound is dissolved in DMSO at high concentration prior to administration. Control animals receive the same volume of carrier solvent (40 μL DMSO).

[7] = tested on: peripheral blood lymphocytes stimulated by OKT3 antibody (anti-CD3); experiment: OKT3 stimulation assay, [3H]TdR incorporation; type: cell-based, human; conditions: Reverse Prenyl Compounds, read-out: IC50 OKT3 Assays
Experimental: (§1) Fresh peripheral blood lymphocytes isolated by Ficoll-Hypaque density centrifugation are stimulated by PHA or the OKT3 antibody (anti-CD3), which stimulates via interaction with CD3. Stimulation is measured by incorporation of radioactive thymidine [(^3H)TdR] into proliferating cells, with an unhibited control signal of 48,000-75,000 cpm. IC50 values are estimated from inhibitions of proliferation observed at various drug concentrations.

[8] = tested on: peripheral blood lymphocytes stimulated by PHA; experiment: PHA stimulation assay, [3H]TdR incorporation; type: cell-based, human; conditions: Reverse Prenyl Compounds, read-out: IC50 PHA Assays
Experimental: as §1

P388/0 Tumors = type: in vivo; design: SURVIVAL TIME of individual mice (No. 1-6): unit: days
Experimental: Survival times were determined for B6D2F1 mice inoculated with P388/0 cells, 10^6 cells/mouse, i.p. at Day 0. The mice were treated by adriamycin and 5-N-acetylardeemin, i.p., daily for four days. Survival times were recorded based on the time of death with the following scheme of decimal values: 8AM (0.0), 1PM (0.25), 5PM (0.5). An in vivo immunosuppressive effect of the ardeemin derivatives is found which persistently […] the lifespan of P388 tumor-bearing B6D2F1 mice in a dose-dependent manner.

[9] = Adr 0.333 mg/kg i.p. daily Day 1-4
[10] = Adr 1.0 mg/kg i.p. daily Day 1-4
[11] = Adr 3.0 mg/kg i.p. daily Day 1-4
[12] = 5NAcArd 3.33 mg/kg i.p. daily Day 1-4
[13] = 5NAcArd 10 mg/kg i.p. daily Day 1-4
[14] = 5NAcArd 30 mg/kg i.p. daily Day 1-4

## S=c1nc[nH]c2nc[nH]c12 [6-MP]
[1]
  IC50: 0.136 ± 0.019 µM
[2]
  IC50: 0.044 ± 0.017 µM

## Cc1c(-c2ccc(-c3ccccc3F)cc2)nc2ccc(F)cc2c1C(=O)O [Brequinard]
[1]
  IC50: 56.6 ± 22.7 µM
[2]
  IC50: 11.2 ± 4 µM
[3]
  IC50: 11.2 µM

## C[C@]12CCC(=O)C=C1CC[C@@H]1[C@@H]2[C@@H](O)C[C@@]2(C)[C@H]1CC[C@]2(O)C(=O)CO [Hydrocortisone]
[4]; 1% Cream, Skin
  Average Pedis Area, Hours: 12: 9.0*** mm^2
  Toxicity Death: 0/5
[5]; 1% Cream, Skin
  Average Pedis Area, Hours: 0: 6.9 mm^2
  Average Pedis Area, Hours: 24: 8.9*** mm^2
  Average Pedis Area, Hours: 48: 7.8*** mm^2
  Average Pedis Area, Hours: 60: 7.9*** mm^2

## C=CC(C)(C)[C@@]12C[C@H]3c4nc5ccccc5c(=O)n4CC(=O)N3[C@@H]1N(C(C)=O)c1ccccc12 [5-N-acetyl-8-demethylardeemin, 5-N-acetyl-8-desmethylardeemin]
B6D2F1 mice; FIG. 2, i.p., QD
  toxicity to mice: very nontoxic
B6D2F1 mice; sequential 100 mg/kg i.p. QDx6, 150 mg/kg QDx8, 200 mg/kg QDx3, 300 mg/kg QDx3
  toxicity to mice: non-toxic
B6D2F1 mice; up to 250 mg/kg, Qdx3
  average body weight decreases: less than 0.5 g
[6]
  resistance of organ transplant to graft rejection vs control mice: more resistant to graft rejection
[7]
  IC50: 1.13 ± 0.13 µM
[8]; listed as 5-N-Ac-8-desmethylardeemin
  IC50: 1.2 ± 0.02 µM
[3]
  IC50: 0.98 µM

## COc1cccc2c1C(=O)c1c(O)c3c(c(O)c1C2=O)C[C@@](O)(C(=O)CO)C[C@@H]3O[C@H]1C[C@H](N)[C@H](O)[C@H](C)O1 [Adr, adriamycin, reference compound]
P388/0 Tumors; [9]
  % ILS (% increase in lifespan): 85%
  MST (mean survival time): 13.75
P388/0 Tumors; [10]
  % ILS (% increase in lifespan): 129%
  MST (mean survival time): 17.0
P388/0 Tumors; [11]
  % ILS (% increase in lifespan): 145%
  MST (mean survival time): 18.19

## C[C@@H]1C[C@H]2[C@@H]3CCC4=CC(=O)C=C[C@]4(C)[C@@]3(F)[C@@H](O)C[C@]2(C)[C@@]1(O)C(=O)CO [Dexamethasone, reference compound]
[3]; Homo sapiens, Lymphocyte
  IC50: 28.2 µM

## CO[C@H]1C[C@@H]2CC[C@@H](C)[C@@](O)(O2)C(=O)C(=O)N2CCCC[C@H]2C(=O)O[C@H]([C@H](C)C[C@@H]2CC[C@@H](O)[C@H](OC)C2)CC(=O)[C@H](C)/C=C(\C)[C@@H](O)[C@@H](OC)C(=O)[C@H](C)C[C@H](C)/C=C/C=C/C=C/1C [Rapamycine, reference compound]
[3]; Homo sapiens, Lymphocyte
  IC50: 0.61 µM

## COc1c(C)c2c(c(O)c1C/C=C(\C)CCC(=O)O)C(=O)OC2 [MPA]
[1]
  IC50: 0.416 ± 0.21 µM
[2]
  IC50: 0.095 ± 0.027 µM

## 8-demethylardeemin
[7]; listed as 8-Desmethylardeemin
  IC50: 2.23 ± 0.16 µM
[7]; listed as 8-desmethylardeemin
  IC50: 1.2 to 2.3 µM
[8]; listed as 8-Desmethylardeemin
  IC50: 2.26 ± 0.06 µM
[3]
  IC50: 2.26 µM

## C=CC(C)(C)[C@@]12C[C@H]3c4nc5ccccc5c(=O)n4[C@H](C)C(=O)N3[C@@H]1N(C(C)=O)c1ccccc12 [5-N-acetylardeemin]
B6D2F1 mice; FIG. 2, i.p., QD
  toxicity to mice: relatively nontoxic
[6]
  resistance of organ transplant to graft rejection vs control mice: more resistant to graft rejection
[4]; 100 mg/kg i.p.
  Average Pedis Area, Hours: 0: 7.1 mm^2
  Average Pedis Area, Hours: 60: 10.2*** mm^2
  Toxicity Death: 0/5
[7]
  IC50: 31.9 µM
[8]
  IC50: 7.96 µM
[5]; 50 mg/kg i.p.
  Average Pedis Area, Hours: 0: 6.8 mm^2
  Average Pedis Area, Hours: 12: 12.4 mm^2
  Average Pedis Area, Hours: 24: 12.7 mm^2
  Average Pedis Area, Hours: 48: 11.3* mm^2
  Average Pedis Area, Hours: 60: 15.6 mm^2
  Toxicity Death: 0/5
[5]; 100 mg/kg i.p.
  Average Pedis Area, Hours: 12: 9.7*** mm^2
  Average Pedis Area, Hours: 24: 9.0*** mm^2
  Average Pedis Area, Hours: 48: 8.6*** mm^2
P388/0 Tumors; [12]
  % ILS (% increase in lifespan): −2%
  AWC D 4: +0.9 Gm
  AWC D 6: +3.3 Gm
  MST (mean survival time): 7.25
  SURVIVAL TIME of individual mice (No. 1-6): 8.0 (2×) and 6.0 and 7.0
P388/0 Tumors; [13]
  % ILS (% increase in lifespan): −10%
  AWC D 4: +1.7 Gm
  AWC D 6: +4.8 Gm
  MST (mean survival time): 6.67
  SURVIVAL TIME of individual mice (No. 1-6): 7.5 and 6.0 and 6.5
P388/0 Tumors; [14]
  % ILS (% increase in lifespan): −16%
  AWC D 4: +1.6 Gm
  AWC D 6: +3.8 Gm
  MST (mean survival time): 6.25
  SURVIVAL TIME of individual mice (No. 1-6): 6.0 and 6.5
[3]
  IC50: 1.91 µM

## 5-N-Ac-F3-Ardeemin
[7]
  IC50: 4.56 µM
[8]
  IC50: 9.97 ± 1.49 µM

## C=CC(C)(C)[C@@]12Nc3ccccc3[C@]1(O)C[C@H]1C(=O)N3[C@@H](C[C@]4(O)c5ccccc5N[C@]34C(C)(C)C=C)C(=O)N12 [Gypsetin]
[7]
  IC50: 12 ± 0.51 µM
[8]
  IC50: 5.48 ± 1.24 µM

## CC(=O)Oc1ccccc1C(=O)O [Aspirin]
[4]; 500 mg/kg p.o.
  Average Pedis Area, Hours: 0: 6.8 mm^2
[5]; 250 mg/kg p.o.
  Average Pedis Area, Hours: 0: 6.9 mm^2
  Average Pedis Area, Hours: 12: 12.5 mm^2
  Average Pedis Area, Hours: 24: 12.3 mm^2
  Average Pedis Area, Hours: 48: 13.2 mm^2
  Average Pedis Area, Hours: 60: 15.4** mm^2
  Toxicity Death: 0/5
[5]; 500 mg/kg p.o.
  Average Pedis Area, Hours: 12: 9.9** mm^2
  Average Pedis Area, Hours: 24: 10.6** mm^2
  Average Pedis Area, Hours: 48: 9.0*** mm^2
  Average Pedis Area, Hours: 60: 10.0*** mm^2
  Toxicity Death: 0/5
[5]; 1000 mg/kg p.o.
  Average Pedis Area, Hours: 0: 6.5 mm^2
  Average Pedis Area, Hours: 12: 8.8*** mm^2
  Toxicity Death: 5/6
